# Reference: US20080096894A1, “Anti-Bacterial Compounds” (ASTON UNIVERSITY, priority 2005, published 2008)
# Read-outs that look alike come from different tables or passages of the source.
# How the values were obtained:
# [1] = system: human mononuclear leucocytes (MNL, white blood cells); assay: direct leucocyte toxicity, tryptan blue exclusion, 18 hours; assay type: cell-based
# Experimental: The in vitro assay used human mononuclear leucocytes (MNL, white blood cells) which were incubated with the test compound for 18 hours and cell death determined by tryptan blue exclusion (tryptan blue is a dye, which stains dead cells, whilst living cells extrude it).
# The toxicity of 4PYcq and the aldehyde cq and pyridine-4-carboxamidrazone precursors were assessed using the same in vitro assay with human mononuclear leucocytes as that described above. The toxicity of related compounds, 2-hydroxybenzylidene-pyridine-2-carboxamidrazone 4PYbw and benzylidenepyridine-2-carboxamidrazone 4PYaa were also examined.
# E. faecium = assay: MIC, agar dilution, multipoint inoculator; assay type: cell-based, Enterococcus faecium; details: upper value of MIC reading
# Experimental: (§1) This activity was measured using a multipoint inoculator method as follows. The MIC for each compound was measured using an agar dilution method (Onda, H., et al., Int. J. Antimicrob. Agents. 18, 263 (2001)) (Mueller Hinton agar) by means of a multipoint inoculator delivering 10^4 colony forming units per spot.
# S. epidemisis = assay: MIC, agar dilution, multipoint inoculator; assay type: cell-based, Staphylococcus epidermidis; details: upper value of MIC reading
# Experimental: as §1
# MRSA = assay: MIC, agar dilution, multipoint inoculator; assay type: cell-based, methicillin-resistant Staphylococcus aureus
# Experimental: as §1
# ‘Staph’ refers to the reference strain of S. aureus (NCTC 6571). A tick in the MRSA column refers to a positive zone against MRSA strain 96-7474, and the MIC range (in μg/ml) which follows is that found against a panel of ten MRSA strains. Where MIC values are given for MRSA, these are stated as a range of values, as testing was carried out on a panel of clinical isolates.
# S. aureus = assay: MIC, agar dilution, multipoint inoculator; assay type: cell-based, Staphylococcus aureus; details: upper value of MIC reading
# Experimental: as §1
# S. haemolyticus = assay: MIC, agar dilution, multipoint inoculator; assay type: cell-based; details: S. haemolyticus Isolate 1, upper value of MIC reading
# Experimental: as §1
# E. faecalis = assay: MIC, agar dilution, multipoint inoculator; assay type: cell-based; details: upper value of MIC reading
# Experimental: as §1
# [2] = MRSA Isolate 3, upper value of MIC reading, in µg/mL
# [3] = panel of ten MRSA strains (clinical isolates)
# [4] = MRSA Isolate 1, upper value of MIC reading, in µg/mL
# [5] = MRSA Isolate 2, upper value of MIC reading, in µg/mL
# [6] = MRSA Isolate 4, upper value of MIC reading, in µg/mL
# [7] = MRSA Isolate 5, upper value of MIC reading, in µg/mL
# [8] = MRSA Isolate 6, upper value of MIC reading, in µg/mL
# [9] = MRSA Isolate 7, upper value of MIC reading, in µg/mL
# [10] = MRSA Isolate 8, upper value of MIC reading, in µg/mL
# [11] = MRSA Isolate 9, upper value of MIC reading, in µg/mL
# [12] = MRSA Isolate 10, upper value of MIC reading, in µg/mL
structure (smiles),measurement,setting,value
"N/N=C(\N)c1ccccn1 [Compound 2PY, Pyridine-2-carboxamidrazone]",direct MNL toxicity (in words),[1],most toxic
same,% Leucocyte Death,"[1]; human, 18 h, 1 mM",12.1 ± 2.2%
"CCC(C)(C)c1ccc(/C=N/N=C(\N)c2ccncc2)cc1 [Compound 4PYaf, N^1-[4-(1,1-dimethylpropyl)benzylidene]-pyridine-4-carboxamidrazone]",MIC,"E. faecium; Enterococcus faecium, 18 h, E. faecium ACTCC 10541, read-out: MIC",64 µg/mL
same,MIC,"E. faecium; Enterococcus faecium, NCTC7171, 18 h, E. faecium NCTC 7171, read-out: MIC",64 µg/mL
same,MIC,"S. epidemisis; Staphylococcus epidermidis, 18 h, S. epidemisis Isolate 1, read-out: MIC",64 µg/mL
same,MIC,"S. epidemisis; Staphylococcus epidermidis, NCTC11047, 18 h, S. epidemisis NCTC 11047, read-out: MIC",64 µg/mL
same,MIC,"MRSA; Staphylococcus aureus, 18 h, MRSA Isolate 1, upper value of MIC reading, read-out: MIC",64 µg/mL
same,MIC,"MRSA; Staphylococcus aureus, 18 h, MRSA Isolate 2, upper value of MIC reading, read-out: MIC",64 µg/mL
same,MIC,"MRSA; Staphylococcus aureus, 18 h, MRSA Isolate 3, upper value of MIC reading, read-out: MIC",64 µg/mL
same,MIC,"MRSA; Staphylococcus aureus, 18 h, MRSA Isolate 4, upper value of MIC reading, read-out: MIC",64 µg/mL
same,MIC,"MRSA; Staphylococcus aureus, 18 h, MRSA Isolate 5, upper value of MIC reading, read-out: MIC",64 µg/mL
same,MIC,"MRSA; Staphylococcus aureus, 18 h, MRSA Isolate 6, upper value of MIC reading, read-out: MIC",64 µg/mL
same,MIC,"MRSA; Staphylococcus aureus, 18 h, MRSA Isolate 7, upper value of MIC reading, read-out: MIC",64 µg/mL
same,MIC,"MRSA; Staphylococcus aureus, 18 h, MRSA Isolate 8, upper value of MIC reading, read-out: MIC",64 µg/mL
same,MIC,"MRSA; Staphylococcus aureus, 18 h, MRSA Isolate 9, upper value of MIC reading, read-out: MIC",64 µg/mL
same,MIC,"MRSA; Staphylococcus aureus, 18 h, MRSA Isolate 10, upper value of MIC reading, read-out: MIC",64 µg/mL
same,MIC,"MRSA; Staphylococcus aureus, MRSA, 18 h, panel of ten MRSA strains (clinical isolates), read-out: MRSA MIC range",32 to 64 µg/mL
same,MIC,"S. aureus; Staphylococcus aureus, 18 h, S. aureus Cowan 1, read-out: MIC",64 µg/mL
same,MIC,"S. aureus; Staphylococcus aureus, NCTC6571, 18 h, S. aureus NCTC 6571, read-out: MIC",64 µg/mL
same,MIC,"S. aureus; Staphylococcus aureus, NCTC10788, 18 h, S. aureus NCTC 10788, read-out: MIC",64 µg/mL
same,MIC,"S. haemolyticus; Staphylococcus haemolyticus, 18 h, read-out: MIC",64 µg/mL
same,MIC,"E. faecalis; Enterococcus faecalis, 18 h, E. faecalis EBH1, read-out: MIC",64 µg/mL
same,MIC,"E. faecalis; Enterococcus faecalis, 18 h, E. faecalis Isolate 1, read-out: MIC",64 µg/mL
same,MIC,"E. faecalis; Enterococcus faecalis, 18 h, E. faecalis Isolate 2, read-out: MIC",64 µg/mL
same,MIC,"E. faecalis; Enterococcus faecalis, 18 h, E. faecalis Isolate 3, read-out: MIC",64 µg/mL
same,MIC,"E. faecalis; Enterococcus faecalis, 18 h, E. faecalis Isolate 4, read-out: MIC",128 µg/mL
same,MIC,"E. faecalis; Enterococcus faecalis, 18 h, E. faecalis Isolate 5, read-out: MIC",128 µg/mL
same,MIC,"E. faecalis; Enterococcus faecalis, NCTC5957, 18 h, E. faecalis NCTC 5957, read-out: MIC",64 µg/mL
NC(=NN=Cc1c(O)ccc2ccccc12)c1ccccn1 [Compound 2PYdb],MIC,MRSA; [2],>256
same,MRSA MIC range,MRSA; [3],> 256 µg/mL
same,MIC,S. aureus; S. aureus NCTC 6571,> 256 µg/mL
NC(=NN=Cc1cc(I)cc(I)c1O)c1ccncc1 [Compound 4PYco],MRSA MIC range,MRSA; [3],10 to 20 µg/mL
NC(=NN=Cc1cc([N+](=O)[O-])ccc1O)c1ccccn1 [Compound 2PYcj],MIC,S. epidemisis; S. epidemisis Isolate 1,256 µg/mL
same,MIC,S. epidemisis; S. epidemisis NCTC 11047,256 µg/mL
same,MIC,MRSA; [4],16
same,MIC,MRSA; [5],16
same,MIC,MRSA; [2],4
same,MIC,MRSA; [6],8
same,MIC,MRSA; [7],16
same,MIC,MRSA; [8],16
same,MIC,MRSA; [9],8
same,MIC,MRSA; [10],4-8
same,MIC,MRSA; [11],8
same,MIC,MRSA; [12],8
same,MRSA MIC range,MRSA; [3],4 to 32 µg/mL
same,MIC,S. aureus; S. aureus Cowan 1,32 µg/mL
same,MIC,S. aureus; S. aureus NCTC 6571,16 µg/mL
same,MIC,S. aureus; S. aureus NCTC 10788,16 µg/mL
same,MIC,S. haemolyticus,256 µg/mL
same,MIC,E. faecalis; E. faecalis Isolate 3,256 µg/mL
same,MIC,E. faecalis; E. faecalis Isolate 5,256 µg/mL
NC(=NN=Cc1cc(O)c(O)cc1O)c1ccncc1 [Compound 4PYcc],MRSA MIC range,MRSA; [3],20 to 30 µg/mL
Cc1cccc(C=NN=C(N)c2ccccn2)c1 [Compound 2PYaj],MRSA MIC range,MRSA; [3],128 to 256 µg/mL
NC(=NN=Cc1cc(Br)cc([N+](=O)[O-])c1O)c1ccccn1 [Compound 2PYcl],MIC,E. faecium; E. faecium ACTCC 10541,128 µg/mL
same,MIC,E. faecium; E. faecium NCTC 7171,256 µg/mL
same,MIC,MRSA; [4],64
same,MIC,MRSA; [5],64
same,MIC,MRSA; [2],64
same,MIC,MRSA; [6],32
same,MIC,MRSA; [7],32
same,MIC,MRSA; [8],64
same,MIC,MRSA; [9],64
same,MIC,MRSA; [10],64
same,MIC,MRSA; [11],64
same,MIC,MRSA; [12],64
same,MIC,S. aureus; S. aureus Cowan 1,64 µg/mL
same,MIC,S. aureus; S. aureus NCTC 6571,32 µg/mL
same,MIC,S. aureus; S. aureus NCTC 10788,32 µg/mL
same,MIC,E. faecalis; E. faecalis EBH1,256 µg/mL
same,MIC,E. faecalis; E. faecalis NCTC 5957,256 µg/mL
COc1ccc(C=NNc2ccccn2)c(O)c1 [HDcf],MRSA MIC range,MRSA; [3],20 to 30 µg/mL
O=Cc1cc(Br)cc([N+](=O)[O-])c1O [cl],MIC,MRSA; [4],16
same,MIC,MRSA; [5],16
same,MIC,MRSA; [2],32
same,MIC,MRSA; [6],16
same,MIC,MRSA; [7],16
same,MIC,MRSA; [8],32
same,MIC,MRSA; [9],32
same,MIC,MRSA; [10],32
same,MIC,MRSA; [11],32
same,MIC,S. aureus; S. aureus Cowan 1,32 µg/mL
same,MIC,S. aureus; S. aureus NCTC 6571,16 µg/mL
same,MIC,S. aureus; S. aureus NCTC 10788,16 µg/mL
Cc1ccccc1C=NN=C(N)c1ccccn1 [Compound 2PYah],MRSA MIC range,MRSA; [3],128 to 256 µg/mL
